# Source: patent US6034086A, “Trifluoromethylquinolinecarboxylic acid derivative” (priority 1994, dated 2000)
# Read-outs that look alike come from different tables or passages of the source.
# What was measured:
# HIV [1] = test: cellular disorder-suppressing activity (anti-HIV activity) in HIV-infected MT-4 cells, MTT, method of R. Pauwel et al.; format: cell-based; conditions: for EC50: Human immunodeficiency virus 1, MT4, 120 h, HIV-infected MT-4 cells, 37° C., 5 days, 5% carbon dioxide, MTT, read-out: EC50 (50% cellular disorder-suppressing activity against the HIV-infected cells)
# Method: That is, MT-4 cells were centrifuged (1000×g, 5 minutes), and a cell-floating solution in which the resulting cellular sediments were suspended in a RPMI-1640 medium containing no serum was inoculated with HIV. The mixture was cultured at 37° C. for 1 hour and then added to a RPMI-1640 medium to which 10% bovine fetal serum was added (hereinafter referred to as the serum medium), and the mixture was washed and centrifuged (1000×g, 5 minutes). The HIV-infected cells thus obtained and HIV-non-infected cells were suspended in the serum media in an amount of 4×10^5 /ml, respectively, and each 100 μl of the suspensions were apportioned to the respective wells of a multiwell with 96 wells for tissue culture. Each 100 μl of the compounds which had been previously diluted with the serum medium stepwisely were apportioned to these respective wells, and then the mixtures were left to stand and cultured at 37° C. for 5 days in the presence of 5% carbon dioxide. In the same manner, the HIV-infected cells and the HIV-non-infected cells to which the compound was not added were cultured. […] It was confirmed that no mycoplasma was contained in the cell solution and the virus-inoculated solution.
# The cellular disorder-suppressing activity against the HIV-non-infected cells to which the compound was not added was defined as 100%, and the cellular disorder-suppressing activity against the HIV-infected cells to which the compound was not added was defined as 0%.
# HIV [2] = conditions: AIDS 4, 1283 (1990) for DR-3355; WO 90/13542 for the others; cited from earlier work
# [3] = method of R. Pauwel et al., statement in background section
EC50 (HIV [1]) [µg/mL],SMILES,"cellular disorder-suppressing activity to HIV-infected cells (anti-HIV activity), in words (HIV [1]; [3])","anti-HIV activity reported in literature, in words (HIV [2])","cellular disorder-suppressing activity to HIV-infected cells (anti-HIV activity), in words (HIV [1])"
–,C[C@H]1COc2c(N3CCN(C)CC3)c(F)cc3c(=O)c(C(=O)O)cn1c23 [DR-3355],no anti-HIV activity was recognized,anti-HIV activity,–
0.02,"O=C(O)c1cn(C2CC2)c2c(C(F)(F)F)c(N3CCN(c4ccccn4)CC3)c(F)cc2c1=O [Example 2, 1-cyclopropyl-6-fluoro-8-trifluoromethyl-1,4-dihydro-4-oxo-7-[4-(2-pyridyl)piperazin-1-yl]quinoline-3-carboxylic acid]",–,–,–
0.01,"CCn1cc(C(=O)O)c(=O)c2cc(F)c(N3CCN(c4ccccn4)CC3)c(C(F)(F)F)c21 [Example 11, 1-ethyl-6-fluoro-8-trifluoromethyl-1,4-dihydro-4-oxo-7-[4-(2-pyridyl)piperazin-1-yl]quinoline-3-carboxylic acid]",–,–,–
0.0096,"Cn1cc(C(=O)O)c(=O)c2cc(F)c(N3CCN(c4ccc(F)cc4)CC3)c(C(F)(F)F)c21 [Example 22, 6-fluoro-8-trifluoromethyl-1,4-dihydro-4-oxo-1-methyl-7-[4-(4-fluorophenyl)piperazin-1-yl]quinoline-3-carboxylic acid]",–,–,–
–,CCn1cc(C(=O)O)c(=O)c2cc(F)c(N3CCNCC3)cc21 [Norfloxacin],no anti-HIV activity was also recognized,anti-HIV activities,–
–,CN1CCN(c2cc3c(cc2F)c(=O)c(C(=O)O)cn3-c2ccc(F)cc2)CC1 [Difloxacin],no anti-HIV activity was also recognized,anti-HIV activities,–
–,NC1CCN(c2nc3c(cc2F)c(=O)c(C(=O)O)cn3-c2ccc(F)cc2F)C1 (centres unmarked) [Tosufloxacin],no anti-HIV activity was also recognized,anti-HIV activities,–
0.02,"Cn1cc(C(=O)O)c(=O)c2cc(F)c(N3CCN(c4ncccn4)CC3)c(C(F)(F)F)c21 [Example 8, 6-fluoro-8-trifluoromethyl-1,4-dihydro-4-oxo-1-methyl-7-[4-(2-pyrimidinyl)piperazin-1-yl]quinoline-3-carboxylic acid]",–,–,–
–,O=C(O)c1cn(C2CC2)c2cc(N3CCNCC3)c(F)cc2c1=O [Ciprofloxacin],–,anti-HIV activities,no anti-HIV activity was also recognized
–,CCn1cc(C(=O)O)c(=O)c2cc(F)c(N3CCNCC3)nc21 [Enoxacin],no anti-HIV activity was also recognized,anti-HIV activities,–
0.011,"Cn1cc(C(=O)O)c(=O)c2cc(F)c(N3CCN(c4nccs4)CC3)c(C(F)(F)F)c21 [Example 23, 6-fluoro-8-trifluoromethyl-1,4-dihydro-4-oxo-1-methyl-7-[4-(2-thiazolyl)piperazin-1-yl]quinoline-3-carboxylic acid]",–,–,–
–,CCn1cc(C(=O)O)c(=O)c2cc(F)c(N3CCNC(C)C3)c(F)c21 (centres unmarked) [Lomefloxacin],no anti-HIV activity was also recognized,anti-HIV activities,–
0.005,"Cn1cc(C(=O)O)c(=O)c2cc(F)c(N3CCN(c4ccccn4)CC3)c(C(F)(F)F)c21 [Example 9, 6-fluoro-8-trifluoromethyl-1,4-dihydro-4-oxo-1-methyl-7-[4-(2-pyridyl)piperazin-1-yl]quinoline-3-carboxylic acid]",–,–,–
